Measured values: patent US20210308078A1, “NEW USE OF INHIBITORS OF MONOAMINE OXIDASE TYPE B” (ISTITUTO Di RICERCA PEDiATRiCA CITTA DELLA SPERANZA, priority 2018, published 2021)

Columns and labels:
MAOA, MAOB = conditions: cited from earlier work
caspase-1 = assay: Caspase-1 activation assay (FLICA 660-YVAD-FMK, FACS) in human macrophages; assay type: cell-based; conditions: LPS/ATP and LPS/nigericin, 8 h; pargyline 100 μM, rasagiline 5 μM, NAC 5 mM
Procedure: The cells were then marked with fluorescent antibodies anti-MHCII and analysed by FACS. The activity of the inflammasome was expressed as % of the cells that were positive for caspase-1 and for MHCII in relation to the total. The values are the average of at least 3 independent experiments±SEM.
(§1) Human monocytes derived from buffy coats obtained from healthy donors were prepared as described in Cathcart, M. K., and Bhattacharjee, A. (2014). […] For macrophage differentiation, 5×10^6 monocytes, seeded in 24-well plates, were cultivated in RPMI 20% FBS in the presence of 10 ng/ml GM-CSF (Miltenyi Biotec) for 7 days. For inflammasome activation, 2×10^6 cells in 6-well plates were treated for 8 h with 100 ng/m1 of LPS Ultra-pure combined with ATP (1 mM) or nigericine (15 μM, added the last 30 min).
The activation of caspase-1 in human macrophages was monitored by way of flow cytometry analysis. The cells, subjected to various treatments, were incubated at 37° C. for 3 h with FLICA 660-YVAD-FMK and washed according to the manufacturer's instructions (FLICA®660 Caspase-1 Assay Kit; ImmunoChemistry Technologies). […] The analysis was performed using CellQuest software (Becton Dickinson) in cells positive for caspase-1 and MHCII.

IL-1β [1] = assay: IL-1β release in human macrophages (ELISA); assay type: cell-based; conditions: LPS/ATP and LPS/nigericin, 8 h, pargyline 100 μM, rasagiline 5 μM, NAC 5 mM
Procedure: FIG. 6. […] The levels of IL-1β in the supernatants were quantified by means of ELISA test. The values are the average of at least 3 independent experiments±SEM.
as §1

IL-1β [2] = assay: IL-1β release in murine macrophages (ELISA); assay type: cell-based; conditions: LPS 100 ng/ml + ATP 5 mM, 4 h, pargyline 100 μM, rasagiline 5 μM
Text: FIG. 7. […] The levels of IL-1β in the supernatants were quantified by means of ELISA test.
Murine macrophages isolated from bone marrow were obtained from the tibia and femoral bone as described in Coll, R. C., Robertson, A. A., Chae, J. J., Higgins, S. C., Munoz-Planillo, R., Inserra, M. C., Vetter, I., Dungan, L. S., Monks, B. G., Stutz, A., et al. (2015). A small-molecule inhibitor of the NLRP3 inflammasome for the treatment of inflammatory diseases. Nature medicine 21, 248-255.
[…] ATP (5 mM, added the last 30 min).
The culture media sampled from stimulated and control human and murine macrophages were stored at −80° C. The levels of IL-1β0 were determined by means of commercially available ELISA kits (eBioscience) and were developed using 3,3′,5,5′-tetramethyl benzidine (TMB). The optical densities were measured at 450 nm by means of a microplate reader (Sunrise, Tecan; Switzerland).

MAO = conditions: human macrophages stimulated 8 h with LPS, LPS/ATP or LPS/nig; pargyline 100 μM, rasagiline 5 μM
Procedure: The intracellular levels of dopamine and norepinephrine (both substrates of MAO) were measured by means of mass spectrometry on cell lysates extracted with methanol:water (70:30). […] The values are the average of at least 3 independent experiments±SEM.
as §1

human macrophages [3] = conditions: stimulation with LPS/ATP and LPS/nigericine, 3 h; rasagiline 5 μM
Procedure: The images were acquired by means of fluorescence microscopy. The data are expressed as fluorescence intensity and are normalised with respect to unstimulated cells (unst). The values are the average of at least 3 independent experiments±SEM.
as §1
ROS were determined by means of carboxymethyl-dichlorofluorescein (CM-DCFDA). […] After 3 h of stimulation the cells were loaded with CM-DCFDA (2.5 μM) for 30 min. All of the steps were performed at 37° C. with 5% CO2. The cells were washed with PBS and the images were acquired using a Leica DMI6000B microscope (Wetzlar, Germany). The fluorescence was measured at 6-8 random intervals per slide and an average value was recorded. The fluorescence emission was performed using excitation filters of emission 488±20 nm and 645±37 nm. The data were acquired and analysed by means of Metafluor software (Universal Imaging).

human macrophages [4] = conditions: 8 h of stimulation; rasagiline 5 μM pre-treatment
Procedure: After 8 h of stimulation, the macrophages were loaded with tetramethylrhodamine methyl ester (TMRM, 50 nM) to determine the mitochondrial membrane potential. After acquisition of images by fluorescence microscopy, the uncoupling agent FCCP (4 μM) was added to collapse the mitochondrial potential. The difference of the fluorescence intensity obtained before and after FCCP is shown in the graph and reflects the mitochondrial membrane potential. The data are expressed as fluorescence intensity and are normalised with respect to unstimulated cells (unst). The values are the average of at least 3 independent experiments±SEM. […]
The mitochondrial membrane potential was measured on the basis of the accumulation of tetramethylrhodamine methyl ester (TMRM, Molecular Probes) as described in Sorato, E., Menazza, S., Zulian, A., Sabatelli, P., Gualandi, F., Merlini, L., Bonaldo, P., Canton, M., Bernardi, P., and Di Lisa, F. (2014). […] The medium was then substituted with a medium devoid of serum integrated with TMM 25 nM for 30 minutes, and the cell fluorescence images were acquired using a Leica microscope (Wetzlar, Germany) DMI6000B. The data were acquired and analysed by means of Metafluor software (Universal Imaging). An excitation of 540±20 nm and a 590 nm longpass emission filter were used to reveal the fluorescence. […]

NF-κB = conditions: murine macrophages
Text: The values are the average of at least 3 independent experiments±SEM.

mice treated with LPS = conditions: rasagiline 0.5 mg/kg per os 12 h before LPS 10 mg/kg ip, 8 h
Procedure: In parallel, a group of mice (ct) were treated with only the vehicle (PBS, ip). At the end, a sample of blood was taken and the plasma levels of IL-1β0 were quantified by means of Elisa test. […] The values are the average of at least 3 independent experiments±SEM.
In parallel, a group of mice (ct) were treated with only the vehicle (PBS, ip). At the end, peritoneal washing with 2 ml of PBS was performed, as well as a leukocyte count.
Adult mice were treated with a single injection of LPS (10 mg/kg ip) for 8 h or of vehicle (PBS, ip). […] At the end, the animals were sacrificed and samples were taken of blood and the peritoneal exudate.
Male mice (strain C57BL/6J) of age 8-10 weeks and weight approximately 30 gr. were subjected to an intraperitoneal injection with LPS (10 mg/kg, L4130, Sigma-Aldrich) or vehicle (saline solution, called PBS). […] The treated animals were sacrificed 8 hours after the injection (considered as time 0), by means of cervical dislocation. Immediately after the sacrifice an intraperitoneal washing was performed with 2 ml of PBS and any exudate present was collected to determine the leukocyte count. In addition, samples of blood were taken and frozen after obtaining the plasma for analysis of IL-1β by means of ELISA test.

Compound | selectivity of inhibition for MAOA / MAOB isoforms (MAOA, MAOB) | activity of the inflammasome (% cells positive for caspase-1 and MHCII) (caspase-1) | release of IL-1β in supernatants (IL-1β [1]) | release of IL-1β in supernatants (IL-1β [2]) | intracellular concentration of dopamine (MAO) | production of ROS (human macrophages [3]) | mitochondrial depolarisation (mitochondrial membrane potential, TMRM) (human macrophages [4]) | activation of NF-κB (NF-κB) | protein levels of pro-IL-1β (NF-κB) | concentration of leucocytes in the peritoneal liquid (mice treated with LPS) | plasma levels of IL-1β (mice treated with LPS)
N[C@@H]1C[C@H]1c1ccccc1 (racemic) [tranylcypromine] | lack selectivity | – | – | – | – | – | – | – | – | – | –
CC(=O)N[C@@H](CS)C(=O)O [N-acetylcysteine] | – | effect is similar | effect is similar | – | – | – | – | – | – | – | –
C#CCN(C)Cc1ccccc1 [pargyline] | able to inhibit both the isoforms | significantly inhibit the activity of the inflammasome | significantly inhibit the release of IL-1β | significantly inhibit the release of IL-1β | increases subsequently | – | – | – | – | – | –
NNCCc1ccccc1 [phenelzine] | lack selectivity | – | – | – | – | – | – | – | – | – | –
C#CCN[C@@H]1CCc2ccccc21 [rasagiline] | MAOB are selectively inhibited | significantly inhibit the activity of the inflammasome | significantly inhibit the release of IL-1β | significantly inhibit the release of IL-1β | increases subsequently | reduces the production of ROS | significantly reduce the mitochondrial depolarisation | reduce the activation of NF-κB | reduce | clear reduction of the concentration of leucocytes | drastically reduces the increase of plasma levels of IL-1β
